pIC50: −log10 of the molar value. Where “and” joins values, the source holds several entries; their conditions need not be identical. Equal values may be shown once. Read-outs that look alike come from different tables or passages of the source.
Experiments:
AMPK-α (phospho-Thr172) = assay: AMPK activation, western blot of phospho-AMPK-α in MDBK cells; type: cell-based, Bos taurus; conditions: for p-alpha, average normalised to control: Averages of experiments 1-3, 18 hours; for p-alpha: band intensity
Procedure: MDBK cells were seeded at 1 × 10^6 cells per 6 cm dish in DMEM containing 10 % FBS. […] After 18 h cells were harvested by a rapid lysis procedure: cells were rinsed with PBS, then lysed using ice-cold buffer containing 50 mM HEPES, 1 mM EDTA, 10 % glycerol, 50 mM NaF, 5 mM sodium pyrophosphate, 1 % Triton-X100, 1 mM dithiothreitol (DTT), and a protease inhibitor cocktail (Roche). The cell lysate was centrifuged at 14,000 × g for 20 min at 4 °C and the protein concentration of the supernatant determined by bicinchoninic acid assay. The lysate was analyzed using Novex 3–12 % bis-Tris gels run in 3-(N-morpholino)propanesulfonic acid (MOPS) buffer (20 μg of protein per lane) followed by transfer to low fluorescence polyvinylidene fluoride membranes by wet transfer. Primary rabbit antibodies for AMPK-β (57C12), AMPK-α (phospho-Thr172) (40H9), and acetyl-coA carboxylase (phospho-Ser79) (Cell Signaling Technology) were incubated overnight with the membrane (1:1000 dilution) in Odyssey blocking buffer at 4 °C. A fluorescent secondary antibody was used (IRDYE800CW from LI-COR Biosciences, 1:20,000 dilution) with a LI-COR Odyssey imaging system.

[1] = target: mouse heart mitochondrial membranes (complex I) (Mus musculus, UniProt P03888+P03899+Q91WD5+Q9DC70); assay: NADH:O2 oxidoreduction by mouse heart mitochondrial membranes; type: biochemical; conditions: for LogIC50 (best fit value): log of IC50 in mM
Sequence of mouse heart mitochondrial membranes (complex I) (P03899 whole entry): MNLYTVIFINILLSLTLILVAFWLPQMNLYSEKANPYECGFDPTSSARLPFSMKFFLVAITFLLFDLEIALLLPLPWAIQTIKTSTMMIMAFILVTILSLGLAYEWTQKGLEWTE
Sequence of mouse heart mitochondrial membranes (complex I) (P03888 whole entry): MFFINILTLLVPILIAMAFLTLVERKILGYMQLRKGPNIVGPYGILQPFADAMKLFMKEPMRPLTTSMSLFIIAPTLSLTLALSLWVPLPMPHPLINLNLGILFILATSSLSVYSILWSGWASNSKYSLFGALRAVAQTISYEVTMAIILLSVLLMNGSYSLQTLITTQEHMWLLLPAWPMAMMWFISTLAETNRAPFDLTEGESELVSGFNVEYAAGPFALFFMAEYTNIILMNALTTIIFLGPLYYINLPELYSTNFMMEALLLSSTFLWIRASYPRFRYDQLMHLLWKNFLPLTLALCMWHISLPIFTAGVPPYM
Sequence of mouse heart mitochondrial membranes (complex I) (Q9DC70 36-224): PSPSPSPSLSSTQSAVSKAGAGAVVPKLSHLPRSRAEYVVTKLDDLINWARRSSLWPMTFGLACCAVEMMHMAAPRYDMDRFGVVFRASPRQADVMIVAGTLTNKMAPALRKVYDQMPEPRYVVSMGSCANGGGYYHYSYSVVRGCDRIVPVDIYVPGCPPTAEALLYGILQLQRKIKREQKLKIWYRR
Sequence of mouse heart mitochondrial membranes (complex I) (Q91WD5 34-463): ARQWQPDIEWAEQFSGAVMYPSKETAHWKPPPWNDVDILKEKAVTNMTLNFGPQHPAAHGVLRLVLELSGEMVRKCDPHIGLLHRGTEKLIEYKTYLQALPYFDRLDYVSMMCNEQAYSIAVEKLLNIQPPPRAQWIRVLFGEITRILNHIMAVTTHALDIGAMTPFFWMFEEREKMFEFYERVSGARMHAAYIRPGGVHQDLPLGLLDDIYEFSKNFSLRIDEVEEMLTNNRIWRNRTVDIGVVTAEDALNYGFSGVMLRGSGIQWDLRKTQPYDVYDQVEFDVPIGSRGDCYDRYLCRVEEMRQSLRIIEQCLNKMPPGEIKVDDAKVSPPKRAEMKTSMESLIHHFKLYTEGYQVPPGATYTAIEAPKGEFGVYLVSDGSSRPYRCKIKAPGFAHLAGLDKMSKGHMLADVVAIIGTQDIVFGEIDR
Procedure: (§1) Complex I and mitochondrial membranes were prepared from Bos taurus (bovine) heart. Intact mitochondria were isolated from rat liver and mouse heart and liver. Membranes were prepared from mouse heart mitochondria by 5 s bursts of sonication at 4 °C and collected by centrifugation (75,000 × g, 1 h).
Assays were performed at 32 °C in a SpectraMax 96-well plate reader. NADH:decylubiquinone oxidoreduction by complex I at 0.5 μg mL^−1 was measured in 20 mM Tris-HCl (pH 7.2), 0.15 % soy bean asolectin (Avanti Polar Lipids), and 0.15 % 3-((3-cholamidopropyl)dimethylammonium)-1-propanesulfonate (CHAPS, Merck Chemicals Ltd), with 200 μM decylubiquinone and 200 μM NADH, and monitored using ε340–380(NADH) = 4.81 mM^−1 cm^−1 [23]. Catalysis was initiated by addition of NADH and maximal rates determined by linear regression. NADH:O2 oxidoreduction by membranes was measured similarly but using 5 μg mL^−1 membranes in 10 mM Tris-HCl (pH 7.4) and 250 mM sucrose using 200 μM NADH and supplemented with 0.15 mM horse heart cytochrome c (Sigma-Aldrich Ltd.). Succinate:O2 oxidoreduction was measured using 40 μg mL^−1 membranes in 5 mM succinate in 10 mM Tris-HCl (pH 7.4) as described previously. Control experiments included NaCl (to match the ionic strength) or DMSO, as appropriate.
Experimental values are reported as mean averages ± standard deviation (SD) of technical replicates for large sample sizes and mean averages ± standard error of the mean (SEM) of technical replicates for small sample sizes. Data were analyzed by the unpaired two-tailed Student’s t test. IC50 values were determined using the standard dose-effect relationship (activity (%) = 100 × IC50 / (IC50 + [inhibitor]^m) with the Hill Slope (m) set to unity for purified complex I) and are reported with 95 % confidence intervals.

permeabilized 143B cells = assay: ADP-stimulated rotenone-sensitive OCR in permeabilized 143B cells; type: cell-based, human; set-up: rotenone sensitive OCR after ADP stimulation, individual replicates / rotenone sensitive OCR after ADP stimulation, average: unit not given here; conditions: for rotenone sensitive OCR after ADP stimulation, % of control, individual replicates / rotenone sensitive OCR after ADP stimulation, individual replicates: replicate 1-11
Procedure: For permeabilized cell experiments, cells were seeded into XF96 plates at 0.9–1.1 × 10^4 per well and incubated for 48 h at 37 °C in 5 % CO2. Then, the growth medium was exchanged for assay buffer containing 3 nM plasma membrane permeabilizer ‘PMP’ (Seahorse Biosciences Inc.), 10 mM glutamate, 10 mM malate, 220 mM mannitol, 70 mM sucrose, 10 mM KH2PO4, 5 mM MgCl2, 1 mM EGTA, 0.2 % fatty acid-free bovine serum albumin (BSA), and 2 mM HEPES (pH 7.4 at 37 °C). […] The biguanides were allowed to accumulate for 30 min, then respiration was […] by the addition of 4 mM ADP. Rotenone was added (2 μM) at the end of the experiment.
Rotenone-sensitive OCRs were calculated by subtracting the rotenone-insensitive rates (determined at the end of the experiment). OCRs were normalized by dividing by the OCR recorded immediately prior to the addition of biguanide. For rate of uptake calculations, the OCRs at time points after biguanide addition were divided by the OCRs at the same time points in control experiments. Data from wells with failed port injections were excluded from the analyses. The respiratory control ratio (RCR) values (state III versus state IV respiration) were ~11 and ~6 for permeabilized MDBK and 143B cells, respectively.

mouse heart mitochondria = assay: ADP-stimulated rotenone-sensitive OCR in isolated mouse heart mitochondria; type: biochemical; set-up: rotenone sensitive OCR after ADP stimulation, individual replicates / rotenone sensitive OCR after ADP stimulation, average / rotenone sensitive OCR after 15 mins, average: unit not given here; conditions: for rotenone sensitive OCR after ADP stimulation, % of control, average / rotenone sensitive OCR after ADP stimulation, average: average of replicates; for rotenone sensitive OCR after ADP stimulation, % of control, individual replicates: replicate 1-11; for rotenone sensitive OCR after ADP stimulation, individual replicates: replicate 1-12
Procedure: as §1
Isolated mitochondria were monitored using a Seahorse XF96 extracellular flux analyzer at 32 °C. Mouse heart mitochondria, and mouse and rat liver mitochondria were plated into XF96 plates at 4 and 16–20 μg per well, respectively, in 220 mM mannitol, 70 mM sucrose, 10 mM KH2PO4, 5 mM MgCl2, 1 mM EGTA, 0.2 % fatty acid-free BSA, and 2 mM HEPES (pH 7.4 at 37 °C) with 10 mM glutamate and 10 mM malate and adhered by centrifugation (2000 × g, 20 min, 4 °C). The medium was supplemented with a further 5 mM glutamate and 5 mM malate and the mitochondria incubated for 15 min. Then two baseline readings were taken before the biguanides were added at IC50/5. […] Rotenone (2 μM) was added at the end of the experiment. Data from wells with failed port injections were excluded from the analyses. The RCR values (state III versus state IV respiration) were 3.4, 4.8, and 4.6 for mouse heart, rat liver, and mouse liver, respectively.

[2] = 143B permeabilised cells, average of replicates

Structure (SMILES)	p-alpha, average normalised to control (AMPK-α (phospho-Thr172))	p-alpha / AMPK beta (AMPK-α (phospho-Thr172); Experiment 1, 18 hours)	p-alpha / AMPK beta normalised to control (AMPK-α (phospho-Thr172); Experiment 1, 18 hours)	p-alpha (AMPK-α (phospho-Thr172); Experiment 1, 18 hours)	p-alpha / AMPK beta (AMPK-α (phospho-Thr172); Experiment 2, 18 hours)	p-alpha / AMPK beta normalised to control (AMPK-α (phospho-Thr172); Experiment 2, 18 hours)	p-alpha (AMPK-α (phospho-Thr172); Experiment 2, 18 hours)	p-alpha / AMPK beta (AMPK-α (phospho-Thr172); Experiment 3, 18 hours)	p-alpha / AMPK beta normalised to control (AMPK-α (phospho-Thr172); Experiment 3, 18 hours)	p-alpha (AMPK-α (phospho-Thr172); Experiment 3, 18 hours)	HillSlope (best fit value) ([1]; Prism variable slope fit)	LogIC50 (best fit value) ([1]; Prism variable slope fit)	rotenone sensitive OCR after ADP stimulation, % of control, individual replicates (permeabilized 143B cells; 143B permeabilised cells)	rotenone sensitive OCR after ADP stimulation, individual replicates (permeabilized 143B cells; 143B permeabilised cells)	rotenone sensitive OCR after ADP stimulation, % of control, average (mouse heart mitochondria)	rotenone sensitive OCR after ADP stimulation, average (mouse heart mitochondria)	rotenone sensitive OCR after ADP stimulation, % of control, individual replicates (mouse heart mitochondria)	rotenone sensitive OCR after ADP stimulation, individual replicates (mouse heart mitochondria)	further results
N=C(N)NC(N)=Nc1ccccc1 [compound 2, phenyl biguanide]	1.18	0.14	1.11	64.6	0.17	1.14	57.4	0.27	1.28	57.3	-1.093	-0.05416	64.11 % of control and 81.27 % of control and 71.75 % of control and 89.78 % of control and 64.02 % of control and 84.74 % of control and 60.92 % of control and 78.85 % of control and 104.39 % of control and 61.15 % of control	153.03 and 194.01 and 171.28 and 214.31 and 152.84 and 202.30 and 145.43 and 188.22 and 249.19 and 145.97	107.96 % of control	261.48	135.56 % of control and 93.15 % of control and 89.18 % of control and 125.36 % of control and 159.10 % of control and 52.24 % of control and 102.54 % of control and 106.56 % of control	328.33 and 225.59 and 215.99 and 303.61 and 385.34 and 126.52 and 248.35 and 258.08	pIC50 ([1]; read-out: IC50 (best fit value), Prism variable slope fit, Bottom 0, Top 100): 3.05; rotenone sensitive OCR after ADP stimulation, % of control, average (permeabilized 143B cells; [2]): 76.10 % of control; rotenone sensitive OCR after ADP stimulation, average (permeabilized 143B cells; [2]): 181.66; inhibition of the OCR (in words) (permeabilized 143B cells; permeabilized 143B cells, biguanide concentration equal to IC50): only limited inhibition
NC(N)=NC(N)=NCc1ccccc1 [compound 3, 2-benzyl-1-(diaminomethylidene)guanidine]	10.88	1.27	10.17	594	1.33	9.10	402	2.78	13.38	628	-1.132	0.5023	6.07 % of control and 2.51 % of control and 3.63 % of control and 7.99 % of control and 8.80 % of control and 18.64 % of control and 13.94 % of control and 7.14 % of control and 16.57 % of control and 2.18 % of control and 7.53 % of control	14.50 and 5.99 and 8.67 and 19.08 and 21.01 and 44.51 and 33.29 and 17.05 and 39.56 and 5.21 and 17.98	28.02 % of control	67.86	41.93 % of control and 30.59 % of control and 30.48 % of control and 24.44 % of control and 22.36 % of control and 21.02 % of control and 20.43 % of control and 32.91 % of control	101.56 and 74.09 and 73.82 and 59.18 and 54.16 and 50.90 and 49.48 and 79.71	pIC50 ([1]; Prism variable slope fit, Bottom 0, Top 100, read-out: IC50 (best fit value)): 2.50; remaining activity at 130 µM ([1]; inhibitor 0.13 mM, read-out: average % (rate, % of no-inhibitor control)): 99.2%; remaining activity at 250 µM ([1]; inhibitor 0.25 mM, read-out: average % (rate, % of no-inhibitor control)): 93.8%; remaining activity at 500 µM ([1]; inhibitor 0.50 mM, read-out: average % (rate, % of no-inhibitor control)): 86.3%; remaining activity at 1000 µM ([1]; inhibitor 1.00 mM, read-out: average % (rate, % of no-inhibitor control)): 85%; remaining activity at 5000 µM ([1]; inhibitor 5.00 mM, read-out: average % (rate, % of no-inhibitor control)): 35.4%; remaining activity at 10000 µM ([1]; inhibitor 10.00 mM, read-out: average % (rate, % of no-inhibitor control)): 25.3%

Source: publication PMC4977651, “Molecular features of biguanides required for targeting of mitochondrial respiratory complex I and activation of AMP-kinase” (BMC Biology, 2016)
